One experiment concerns the target T1, Protein RecA (Mycobacterium tuberculosis, UniProt P9WHJ3).
T1 sequence (P9WHJ3 whole entry): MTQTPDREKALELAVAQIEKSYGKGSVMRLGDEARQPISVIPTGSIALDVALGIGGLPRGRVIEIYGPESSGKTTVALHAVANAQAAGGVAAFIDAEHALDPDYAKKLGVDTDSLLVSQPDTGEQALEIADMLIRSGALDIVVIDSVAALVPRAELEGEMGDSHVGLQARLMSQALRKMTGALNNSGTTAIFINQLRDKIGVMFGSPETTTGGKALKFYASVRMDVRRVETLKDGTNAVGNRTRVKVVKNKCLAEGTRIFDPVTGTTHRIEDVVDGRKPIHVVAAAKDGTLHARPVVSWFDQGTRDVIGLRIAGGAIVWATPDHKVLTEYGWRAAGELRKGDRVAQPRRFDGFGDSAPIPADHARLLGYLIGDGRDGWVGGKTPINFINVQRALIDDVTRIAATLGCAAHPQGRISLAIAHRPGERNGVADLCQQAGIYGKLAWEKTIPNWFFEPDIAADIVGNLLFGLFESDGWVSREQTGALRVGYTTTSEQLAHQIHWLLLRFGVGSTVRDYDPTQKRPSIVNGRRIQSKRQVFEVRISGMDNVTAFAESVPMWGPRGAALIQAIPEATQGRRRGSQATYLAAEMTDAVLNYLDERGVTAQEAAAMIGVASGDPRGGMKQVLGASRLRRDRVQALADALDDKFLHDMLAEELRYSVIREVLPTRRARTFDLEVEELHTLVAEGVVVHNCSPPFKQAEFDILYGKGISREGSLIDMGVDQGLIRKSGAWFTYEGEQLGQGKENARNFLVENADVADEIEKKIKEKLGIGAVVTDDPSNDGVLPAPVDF
The experiment is described as follows: Fluorescence Cell-Free Homogeneous Dose Retest to Identify Inhibitors of RecA-Intein Splicing Activity. [Related pubchem assays (depositor defined):AID2097, AID2223, AID489010, AID492950]. It counts as functional.

Experiment [1] addresses T2, Replicative DNA helicase DnaB (Mycobacterium tuberculosis, UniProt P9WMR3).
T2 sequence (P9WMR3 whole entry): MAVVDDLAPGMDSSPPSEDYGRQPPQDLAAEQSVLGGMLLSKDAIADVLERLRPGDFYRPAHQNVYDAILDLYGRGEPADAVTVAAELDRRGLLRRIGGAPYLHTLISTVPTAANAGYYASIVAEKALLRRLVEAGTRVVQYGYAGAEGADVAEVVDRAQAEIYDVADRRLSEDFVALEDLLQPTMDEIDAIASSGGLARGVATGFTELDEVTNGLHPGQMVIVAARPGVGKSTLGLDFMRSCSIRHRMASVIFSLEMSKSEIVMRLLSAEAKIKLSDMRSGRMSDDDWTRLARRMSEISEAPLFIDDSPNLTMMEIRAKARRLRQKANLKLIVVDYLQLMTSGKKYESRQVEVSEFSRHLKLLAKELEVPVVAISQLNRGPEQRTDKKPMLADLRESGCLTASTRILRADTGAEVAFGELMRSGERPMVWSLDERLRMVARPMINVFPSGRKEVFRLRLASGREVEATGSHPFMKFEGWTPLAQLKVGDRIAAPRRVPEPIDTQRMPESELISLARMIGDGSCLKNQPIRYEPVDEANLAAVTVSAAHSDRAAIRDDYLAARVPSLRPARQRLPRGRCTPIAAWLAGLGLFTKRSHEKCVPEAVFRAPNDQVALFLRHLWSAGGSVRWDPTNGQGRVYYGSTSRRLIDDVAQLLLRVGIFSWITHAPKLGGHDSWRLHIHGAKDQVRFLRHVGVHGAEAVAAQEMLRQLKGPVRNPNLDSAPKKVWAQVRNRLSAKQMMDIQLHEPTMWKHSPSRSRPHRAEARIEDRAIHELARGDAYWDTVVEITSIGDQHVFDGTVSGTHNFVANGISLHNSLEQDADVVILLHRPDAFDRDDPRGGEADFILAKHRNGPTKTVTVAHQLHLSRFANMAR
The experiment is described as follows: DnaB intein splicing inhibitors, dose response, biochemical, cell-free fluorescence (AID 449749). It counts as functional.

The next experiment has as its system H9c2. The experiment is described as follows: cells. It counts as functional, cell-based. The following applies: Rattus norvegicus, H9c2, Myocardium.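 Note: confirmatory concentration-response retest of ultra-high-throughput screening hits for modulation of myocardial damage; cell death induced by hydrogen peroxide oxidative stress; compound pretreatment for 60 min then peroxide exposure for 2 h; potency is for protecting the cells against peroxide damage rather than for killing them.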
A further experiment relates to Streptococcus. The experiment is described as follows: Group A Streptococcus viability loss, dose response, counter-screen for streptokinase expression inhibitor project, luminescence, BacTiterGlo (AID 1915).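 Note: potency for reduction of bacterial viability or growth.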 It counts as functional, organism-based. (A counterscreen serves to expose hits that act by an unwanted route or on another target.)
In experiment [2] the test system is Streptococcus sp. 'group A'. The experiment is described as follows: growth inhibition of control SK(-) GAS strain, dose response, counter-screen for streptokinase expression inhibitor project, luminescence, kanamycin, BacTiterGlo, confirmation (AID 1900). It counts as functional, organism-based.
Another experiment has as its target T3, Streptokinase A (Streptococcus pyogenes serotype M1, UniProt P10520).
T3 sequence (P10520 whole entry): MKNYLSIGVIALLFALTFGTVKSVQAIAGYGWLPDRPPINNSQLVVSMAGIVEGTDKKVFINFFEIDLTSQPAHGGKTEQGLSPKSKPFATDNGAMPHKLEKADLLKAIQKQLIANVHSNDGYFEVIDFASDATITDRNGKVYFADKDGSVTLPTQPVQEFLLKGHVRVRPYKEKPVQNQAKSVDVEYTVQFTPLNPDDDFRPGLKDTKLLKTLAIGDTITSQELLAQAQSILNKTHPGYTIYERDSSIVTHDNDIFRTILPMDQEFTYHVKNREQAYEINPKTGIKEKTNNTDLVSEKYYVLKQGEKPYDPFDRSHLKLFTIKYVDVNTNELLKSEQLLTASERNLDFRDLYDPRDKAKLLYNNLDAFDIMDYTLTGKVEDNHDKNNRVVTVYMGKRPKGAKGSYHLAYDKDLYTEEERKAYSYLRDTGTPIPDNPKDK
The experiment is described as follows: S. pyogenes streptokinase expression inhibitors, potency, dose response, plasminogen activation absorbance, OD405 (AID 1914).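 Note: secreted streptokinase activity via plasminogen activation per viability signal from cell pellet.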 It counts as functional, Streptococcus pyogenes M1 GAS.

For experiment [3], the target named is T4, Corticotropin-releasing factor receptor 2/Corticotropin-releasing factor-binding protein (Homo sapiens, UniProt P24387+Q13324).
T4 sequence (Q13324 whole entry): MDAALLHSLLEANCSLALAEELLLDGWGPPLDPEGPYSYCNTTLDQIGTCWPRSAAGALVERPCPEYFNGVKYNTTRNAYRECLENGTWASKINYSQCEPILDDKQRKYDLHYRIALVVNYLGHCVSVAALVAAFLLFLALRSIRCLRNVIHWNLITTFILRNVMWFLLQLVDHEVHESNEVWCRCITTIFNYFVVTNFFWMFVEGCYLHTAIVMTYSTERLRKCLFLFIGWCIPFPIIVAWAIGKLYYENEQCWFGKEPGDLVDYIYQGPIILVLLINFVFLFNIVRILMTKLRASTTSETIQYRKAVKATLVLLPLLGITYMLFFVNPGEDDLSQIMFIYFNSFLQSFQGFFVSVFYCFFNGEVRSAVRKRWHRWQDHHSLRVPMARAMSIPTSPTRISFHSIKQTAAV
T4 sequence (P24387 whole entry): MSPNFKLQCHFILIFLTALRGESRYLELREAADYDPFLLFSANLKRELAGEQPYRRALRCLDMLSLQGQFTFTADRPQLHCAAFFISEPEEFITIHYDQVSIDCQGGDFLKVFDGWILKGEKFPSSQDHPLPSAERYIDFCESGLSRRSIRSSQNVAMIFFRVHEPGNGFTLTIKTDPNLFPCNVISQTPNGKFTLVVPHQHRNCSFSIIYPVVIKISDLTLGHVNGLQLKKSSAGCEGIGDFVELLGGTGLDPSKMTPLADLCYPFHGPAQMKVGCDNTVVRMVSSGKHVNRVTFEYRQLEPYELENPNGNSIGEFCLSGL
The experiment is described as follows: activators of CRF receptor 2 with binding protein – uHTS hits, confirmation (AID 602473). The following applies: read-out: EC50_Mean. It counts as functional.

Active and inactive are the calls of the source. Cut-off read from the data, not from the text of the source, for most assays here: actives have a measured EC50 and inactives only a lower limit.

For orientation: AC50 means the concentration at which the activity in the assay is half-maximal. As usually defined, the IC50 is the concentration that inhibits the measured activity by half.

As for `O=C1CC/[N+](=C\c2ccccc2Cl)[N-]1`, the EC50 on Protein RecA was 4.02 µM (active). Further, in experiment [1], the AC50 was 7.23 µM (active).

Regarding `N#Cc1cnn2cc(-c3ncc(C(F)(F)F)cc3Cl)cnc12`, in the experiment with H9c2, the IC50 is > 79 µM (inactive).

Take `Cc1cc2ccccc2c(O)n1`: the half-maximal inhibitory concentration (IC50) in the experiment with H9c2 is 23.5 µM (active).

On to `Cc1nc(SCC(=O)NCc2ccc(F)cc2)c2c(=O)n(C)c(=O)n(C)c2n1`, for which the IC50 in the experiment on H9c2 is > 79 µM (inactive).

As for `CCn1c(=O)cc(OCC(=O)Nc2ccccc2C#N)c2ccccc21`, the IC50 with H9c2 was 18.1 µM (active).

For the molecule `Cn1c(N)c(C(=O)COC(=O)/C=C/c2ccc(OC(F)F)cc2)c(=O)n(C)c1=O`, the EC50 is 13.4 µM (active) in the experiment with Streptococcus, 3.34 µM (active) in experiment [2] and > 150 µM (not active) on Streptokinase A.

On to `O=C(O)c1nn(CCOc2ccc(Br)cc2)c(=O)c2ccccc12`, for which the IC50 in the experiment with H9c2 is > 79 µM (inactive).

In the case of `N#Cc1ccccc1S(=O)(=O)N1CCN(c2nc(-c3cccnc3)nc3ccccc23)CC1`, the IC50 with H9c2 was 27.7 µM (active).

Take `Cc1cc(N)n(-c2nc(-c3cccnc3)nc3ccccc23)n1`: the IC50 in the experiment with H9c2 was 11.6 µM (active).

With `Cc1ccc(N2C(=O)C3CC(c4ccccc4)=C4C5C=CC(C6C(=O)N(c7ccc(C)cc7)C(=O)C56)C4C3C2=O)cc1` (stereo not drawn), the EC50 was 30.9 µM (active) in the experiment on Streptococcus, 1.41 µM (active) in experiment [2] and > 150 µM (not active) at Streptokinase A.

As to `CC1C2=C(O)CC(C)(C)CC2=NC2=C1C(=O)CC(C)(C)C2` (stereo not drawn), the EC50 in experiment [3] was > 53 µM (inactive).

`CC(=O)NC1N=C(C)N(c2ccccc2)C1=O` (stereo not drawn): the EC50 on Protein RecA is 10.7 µM (active). The AC50 in experiment [1] was 4.66 µM (active).

With `O=c1c2ccccc2c(-c2ccccc2)nn1Cc1c(Cl)cccc1Cl`, the EC50 in the experiment with Streptococcus was > 150 µM (not active); in experiment [2], 7.76 µM (active); at Streptokinase A, 17 µM (active).

Take `CN(C)C(=S)N=Nc1[nH]c2ccccc2c1O`: on Protein RecA, the EC50 was 6.07 µM (active). In experiment [1], the concentration at half-maximal activity (AC50) is 10.7 µM (active).

Turning to `COc1cccc(-c2[nH]nc3c2C(c2ccsc2)C(C#N)=C(N)O3)c1` (stereo not drawn), the EC50 at Protein RecA is 0.52 µM (active). Also, the AC50 in experiment [1] was 2 µM (active).

Consider `CC1CCCC(C)N1C(=O)CSc1nc(O)c2ccccc2n1` (stereo not drawn), for which the IC50 in the experiment with H9c2 is > 79 µM (inactive).

`O=C(CSc1nnc(Cc2ccccc2)o1)Nc1cccc(F)c1`: on Protein RecA, the EC50 is 86.1 µM (active). The half-maximal activity concentration (AC50) in experiment [1] is 71.3 µM (active).

As for `COC(=O)c1ccc(N2CCN(C)CC2)c(NC(=O)COc2ccc(C)cc2)c1`, the EC50 (in the experiment on Streptococcus; in experiment [2]; at Streptokinase A) was > 150 µM (not active) throughout.

On to `CC(C)COc1nc2ccccc2c(=O)n1OCC(=O)O`, for which, in the experiment with H9c2, the IC50 is > 79 µM (inactive).

For the molecule `COc1ccc(OC)c(N(CC(=O)Nc2cccnc2)S(=O)(=O)c2ccc(OC)c(OC)c2)c1`, the IC50 with H9c2 was 12 µM (active).

`Oc1nc(Nc2ccc(F)cc2)sc1/C=C1\C=Nc2ccccc21`: the EC50 with Streptococcus is 18.4 µM (active); in experiment [2], 7.02 µM (active); on Streptokinase A it was > 150 µM (not active).

As for `CS(=O)(=O)C1=NSC2=NC(=O)/C(=C\c3ccc(OC(=O)c4ccco4)cc3)C(=N)N21`, on Protein RecA, the EC50 is 16 µM (active). Moreover, the AC50 in experiment [1] was > 120 µM (inactive).

For `COc1ccc(C(=O)NNC(=O)CCc2nc(O)c3ccccc3n2)cc1`, the IC50 in the experiment with H9c2 was 26 µM (active).

Turning to `N#CCCN(C(=O)COC(=O)CCc1nc(O)c2ccccc2n1)c1ccccc1F`, the IC50 in the experiment on H9c2 is 13 µM (active).

On to `COc1cc(/C=N/NC(=O)c2ccccc2)ccc1OS(=O)(=O)c1ccccc1`, for which the IC50 in the experiment with H9c2 was > 79 µM (inactive).

Regarding `O=S(=O)(/N=C(\c1ccc(F)cc1)N1CCOCC1)c1ccccc1`, the EC50 in experiment [3] was > 53 µM (inactive).

With `O=C(CN(c1cccc(Br)c1)S(=O)(=O)c1ccccc1)N/N=C/c1cc([N+](=O)[O-])ccc1O`, the EC50 was > 380 µM (inactive) on Protein RecA, 0.587 µM (active) in the experiment with Streptococcus and 0.364 µM (active) in experiment [2]. The AC50 in experiment [1] is > 380 µM (inactive).

Turning to `CCOC(=O)C1=c2/c(=C/c3ccncc3)c(N)c(C(=O)OC)n2C(=O)C(c2ccncc2)S1` (stereo not drawn), the IC50 in the experiment on H9c2 is > 79 µM (inactive).

Consider `CCc1ccc(/C=N/n2c(S)nnc2C2CCCCC2)cc1`, for which the EC50 in the experiment with Streptococcus was 15.1 µM (active); in experiment [2], 11.1 µM (active); on Streptokinase A it was > 150 µM (not active).

In the case of `C/C(=N/Nc1nc(-c2ccccc2F)nc2ccccc12)c1ccccc1O`, the EC50 with Streptococcus was > 150 µM (not active); in experiment [2] it was 10.2 µM (active); on Streptokinase A, > 150 µM (not active).

The values are drawn from ChEMBL document CHEMBL1201862, “PubChem BioAssay data set” (2004).
